Values of other authors as cited in patent US10016389B2, “Method of making liposomes, liposome compositions made by the methods, and methods of using the same” (LivOn Laboratories, priority 2011, dated 2018).

Key:
[1] = not given; remark: listed apart in the source
[2] = not given; remark: listed apart in the source
[3] = not given; remark: listed apart in the source
[4] = rat populations
[5] = 1000 mg daily, 42 days

SMILES | survival rate after a stroke vs untreated animals | improvement of insulin sensitivity ([1]; oral 600, 1200 or 1800 mg/day, after 4 weeks) [%] | improvement of insulin-stimulated glucose disposal (insulin sensitivity) ([1]; single intravenous infusion of 1000 mg, vs placebo infusion) [%] | peak plasma concentrations ([2]; 3 g orally every 4 hours, predicted by pharmacokinetic modeling) [µmol/L] | half-life ([2]; in vivo) [min] | plasma concentrations ([2]; intravenous administration) | reduction of risk of cerebrovascular deaths ([3]; Linxian trial, 120 mg daily plus molybdenum for 5-6 years, 10 years follow-up) [%] | lower risk of coronary heart disease ([3]; ≥700 mg/day, pooled analysis of nine studies) [%] | oral LD50 [4] | average fasting blood glucose levels ([5]; fell from 169.33 mg/dl) [mg/dL] | average LDL ([5]; reduced from 130.95 mg/dl) [mg/dL] | Average HbA1C ([5]; reduced from 8,82%) [%] | Insulin levels ([5]; reduced from 16.91 microunits/mL) [microunits/mL]
O=C(O)CCCCC1CCSS1 (racemic) [racemic ALA, alpha lipoic acid] | four times greater survival rate | 25 | 50 |  |  |  |  |  |  |  |  |  | 
O=C1O[C@H]([C@@H](O)CO)C(O)=C1O [vitamin C, L-ascorbic acid] |  |  |  | 220 | 30 | ≤ 26,000 micromol/L | 8 | 25 | 11,900 mg per kg | 144.80 | 125.91 | 7.66 | 8.77
